Assays:
[1] = tested on: iPS cell-derived cardiomyocytes; experiment: Screening for cardiomyocyte proliferation agent based on cell cycle activation (Fucci green fluorescence and cell number); design: species or system human; details: compounds administered on day 22 after differentiation induction, evaluated on day 25; 384-well plate, 2500 cells per well
Excerpt: The Fucci gene (Cell. 2008 Feb. 8; 132 (3): 487-98.) was constitutively expressed under the CAG promoter using the PiggyBac transposon vector system (System Biosciences) in a healthy human-derived iPS cell line.
The Fucci gene-introduced iPS cell line was induced to differentiate into cardiomyocytes by the embryoid body method described in Funakoshi, S. et al. Sci Rep 8, 19111 […], cardiomyocytes were extracted using a cell sorter on day 20 after induction, and then seeded into a 384-well plate at 2500 cells per well.
On day 22 after differentiation induction, about 4000 types of compounds were administered, and on day 25, the reactivity of the proliferative capacity of iPS cell-derived cardiomyocytes to the drugs was evaluated based on the intensity of Fucci's green fluorescence and the number of cells.
The Fucci reporter emits orange fluorescence in the G1/G0 phase and green fluorescence in the S/G2/M phase of the cell cycle. Since the cell cycle of undifferentiated human iPS cells is activated, most cells emit green fluorescence. However, when these iPS cells are differentiated into cardiomyocytes, the cell cycle usually stops and most cells turn red.

[2] = tested on: cardiomyocytes on day 18 of differentiation induction; experiment: Flow cytometry of Fucci green fluorescent cardiomyocytes after AM80 administration; assay type: cell-based, human; details: 1 μM, flow cytometry 48 hours later; vs Control (DMSO); FIG. 1 and FIG. 2
Procedure: 1 μM AM80 was administered to cardiomyocytes on day 18 of differentiation induction and then analysis was conducted by flow cytometry 48 hours later.

[3] = tested on: human iPS cell-derived cardiomyocytes; experiment: EdU assay cell proliferation analysis; assay type: cell-based; details: 1 μM for 48 hours from day 18; compared to control group (DMSO-treated group); FIG. 3
Procedure: Further, human iPS cell-derived cardiomyocytes on day 18 after differentiation induction were treated with AM80 (1 μM) for 48 hours, and cell proliferation analysis was performed using EdU assay. […] For the EdU assay, Click-it EdU Pacific Blue flow cytometry assay kit, catalog number C10418 (Invitrogen) was used.

[4] = tested on: myocardial infarction model immunodeficient mouse (NRG mouse); experiment: Engraftment efficiency of transplanted cardiomyocytes by in vivo optical imaging (IVIS); details: cardiomyocytes treated with 1 μM for 48 hours from day 18, intramyocardial injection; compared to DMSO treatment group; FIG. 4
Procedure: Cardiomyocytes were induced to differentiate from iPS cells (Funakoshi, S. et al. Sci Rep 8, 19111 (2016)) derived from a healthy individual, which constantly express luciferase, by the method described in this document. The cardiomyocytes were treated with AM80 (1 μM) for 48 hours from day 18 after differentiation induction. Cardiomyocytes were extracted by flow cytometry, and then transplanted (1000,000 cells) into a myocardial infarction model immunodeficient mouse (NRG mouse with the left anterior descending coronary artery ligated) by intramyocardial injection.

SMILES | proliferation and cell division of iPS cell-derived cardiomyocytes (Fucci's green fluorescence intensity and number of cells) [1] | other results
O=C1NC(=O)C(=Cc2ccc(-c3ccc(F)cc3)o2)S1 (stereo in doubt) [CAY10505] | promote the proliferation and cell division | –
Cc1ccccc1C(C(=O)NC1CCCCC1)N(C(=O)Cn1ccnc1C)c1cccc(F)c1 (centres unmarked) [AGI5198, N-[2-(cyclohexylamino)-1-(2-methylphenyl)-2-oxoethyl]-N-(3-fluorophenyl)-2-methyl-1H-imidazole-1-acetamide] | promote the proliferation and cell division | –
CC1(C)CCC(C)(C)c2cc(NC(=O)c3ccc(C(=O)O)cc3)ccc21 [AM80] | promote the proliferation and cell division | green fluorescent cells (activation of cell cycle) [2]: significant increase; cell proliferation activity (EdU assay) [3]: significant increase; engraftment efficiency of transplanted cardiomyocytes [4]: significant improvement
CC1(C)CCC(C)(C)c2cc(C(=O)Nc3ccc(C(=O)O)cc3)ccc21 [AM580] | promote the proliferation and cell division | –
CC1=C(/C=C/C(C)=C/C=C/C(C)=C/C(=O)O)C(C)(C)CCC1 [All trans retinoic acid] | promote the proliferation and cell division | –
O=C(O)c1ccc2cc(-c3ccc(O)c(C45CC6CC(CC(C6)C4)C5)c3)ccc2c1 [CD437] | promote the proliferation and cell division | –
CC(C)(C)c1cc(C(=O)/C=C/c2ccc(C(=O)O)cc2)cc(C(C)(C)C)c1 [CH55] | promote the proliferation and cell division | –
CC(C)(C)NS(=O)(=O)c1cncc(-c2cc(F)c3nc(N)nn3c2)c1 [CZC24832] | promote the proliferation and cell division | –
